Experimental data published in patent US8063048B2, “Acetylenyl-pyrazolo-pyrimidine derivatives” (Hoffmann-La Roche Inc., priority 2005, dated 2011).
Blank lines part the entries; values can stand above or below the molecule they belong to.

SMILES: CN(C)CCNS(=O)(=O)c1cc(C#Cc2cnn3c(C(F)F)cc(-c4ccc(C(F)(F)F)cc4)nc23)c(F)cc1F [Example 134, 5-[7-Difluoromethyl-5-(4-trifluoromethyl-phenyl)-pyrazolo[1,5-a]pyrimidin-3-ylethynyl]-N-(2-dimethylamino-ethyl)-2,4-difluoro-benzenesulfonamide]
melting point: 165 to 166 °C

SMILES: O=S(=O)(NCCO)c1cc(C#Cc2cnn3c(C(F)F)cc(-c4ccc(C(F)(F)F)cc4)nc23)c(F)cc1F [Example 135, 5-[7-Difluoromethyl-5-(4-trifluoromethyl-phenyl)-pyrazolo[1,5-a]pyrimidin-3-ylethynyl]-2,4-difluoro-N-(2-hydroxy-ethyl)-benzenesulfonamide]
melting point: 149 to 150 °C

SMILES: CN(C)S(=O)(=O)c1ccc(C#Cc2cnn3c(C(F)F)cc(-c4ccc(C(F)(F)F)cc4)nc23)cc1 [Example 136, 4-[7-Difluoromethyl-5-(4-trifluoromethyl-phenyl)-pyrazolo[1,5-a]pyrimidin-3-ylethynyl]-N,N-dimethyl-benzenesulfonamide]
melting point: 211 to 212 °C

SMILES: O=S(=O)(c1ccc(C#Cc2cnn3c(C(F)F)cc(-c4ccc(C(F)(F)F)cc4)nc23)cc1)N1CCOCC1 [Example 137, 7-Difluoromethyl-3-[4-(morpholine-4-sulfonyl)-phenylethynyl]-5-(4-trifluoromethyl-phenyl)-pyrazolo[1,5-a]pyrimidine]
melting point: 227 to 228 °C

SMILES: CNS(=O)(=O)c1ccc(C#Cc2cnn3c(C(F)F)cc(-c4ccc(C(F)(F)F)cc4)nc23)cc1 [Example 138, 4-[7-difluoromethyl-5-(4-trifluoromethyl-phenyl)-pyrazolo[1,5-a]pyrimidin-3-ylethynyl]-N-methyl-benzenesulfonamide]
melting point: 202 to 203 °C

SMILES: COCCNS(=O)(=O)c1ccc(C#Cc2cnn3c(C(F)F)cc(-c4ccc(C(F)(F)F)cc4)nc23)cc1 [Example 139, 4-[7-Difluoromethyl-5-(4-trifluoromethyl-phenyl)-pyrazolo[1,5-a]pyrimidin-3-ylethynyl]-N-(2-methoxy-ethyl)-benzenesulfonamide]
melting point: 184 to 186 °C

SMILES: O=S(=O)(NCCO)c1ccc(C#Cc2cnn3c(C(F)F)cc(-c4ccc(C(F)(F)F)cc4)nc23)cc1 [Example 140, 4-[7-Difluoromethyl-5-(4-trifluoromethyl-phenyl)-pyrazolo[1,5-a]pyrimidin-3-ylethynyl]-N-(2-hydroxy-ethyl)-benzenesulfonamide]
melting point: 191 to 194 °C

SMILES: CN(C)CCNS(=O)(=O)c1ccc(C#Cc2cnn3c(C(F)F)cc(-c4ccc(C(F)(F)F)cc4)nc23)cc1 [Example 141, 4-[7-Difluoromethyl-5-(4-trifluoromethyl-phenyl)-pyrazolo[1,5-a]pyrimidin-3-ylethynyl]-N-(2-dimethylamino-ethyl)-benzenesulfonamide]
melting point: 157 to 159 °C

SMILES: Cc1cc(C#Cc2cnn3c(C(F)F)cc(-c4ccc(C(F)(F)F)cc4)nc23)cnc1N [Example 142, 5-[7-Difluoromethyl-5-(4-trifluoromethyl-phenyl)-pyrazolo[1,5-a]pyrimidin-3-ylethynyl]-3-methyl-pyridin-2-ylamine]
melting point: 194 to 195 °C

SMILES: Cc1nc(N)ccc1C#Cc1cnn2c(C(F)F)cc(-c3ccc(C(F)(F)F)cc3)nc12 [Example 143, 5-[7-Difluoromethyl-5-(4-trifluoromethyl-phenyl)-pyrazolo[1,5-a]pyrimidin-3-ylethynyl]-6-methyl-pyridin-2-ylamine]
melting point: 243 to 246 °C

SMILES: O=S(=O)(c1cccc(C#Cc2cnn3c(C(F)F)cc(-c4ccc(C(F)(F)F)cc4)nc23)c1)N1CCOCC1 [Example 144, 7-Difluoromethyl-3-[3-(morpholine-4-sulfonyl)-phenylethynyl]-5-(4-trifluoromethyl-phenyl)-pyrazolo[1,5-a]pyrimidine]
melting point: 175 to 176 °C

SMILES: CNS(=O)(=O)c1cccc(C#Cc2cnn3c(C(F)F)cc(-c4ccc(C(F)(F)F)cc4)nc23)c1 [Example 145, 3-[7-Difluoromethyl-5-(4-trifluoromethyl-phenyl)-pyrazolo[1,5-a]pyrimidin-3-ylethynyl]-N-methyl-benzenesulfonamide]
melting point: 192 to 194 °C

Now from value to molecule:

melting point: 147 to 148 °C
SMILES: COCCNS(=O)(=O)c1cccc(C#Cc2cnn3c(C(F)F)cc(-c4ccc(C(F)(F)F)cc4)nc23)c1 [Example 146, 3-[7-Difluoromethyl-5-(4-trifluoromethyl-phenyl)-pyrazolo[1,5-a]pyrimidin-3-ylethynyl]-N-(2-methoxy-ethyl)-benzenesulfonamide]

melting point: 113 to 115 °C
SMILES: O=S(=O)(NCCO)c1cccc(C#Cc2cnn3c(C(F)F)cc(-c4ccc(C(F)(F)F)cc4)nc23)c1 [Example 147, 3-[7-Difluoromethyl-5-(4-trifluoromethyl-phenyl)-pyrazolo[1,5-a]pyrimidin-3-ylethynyl]-N-(2-hydroxy-ethyl)-benzenesulfonamide]

melting point: 160 to 162 °C
SMILES: CN(C)CCNS(=O)(=O)c1cccc(C#Cc2cnn3c(C(F)F)cc(-c4ccc(C(F)(F)F)cc4)nc23)c1 [Example 148, 3-[7-Difluoromethyl-5-(4-trifluoromethyl-phenyl)-pyrazolo[1,5-a]pyrimidin-3-ylethynyl]-N-(2-dimethylamino-ethyl)-benzenesulfonamide]

melting point: 213 to 216 °C
SMILES: Fc1ccc(C#Cc2cnn3c(C(F)(F)F)cc(-c4ccc(C(F)(F)F)cc4)nc23)cn1 [Example 149, 3-(6-Fluoro-pyridin-3-ylethynyl)-7-trifluoromethyl-5-(4-trifluoromethyl-phenyl)-pyrazolo[1,5-a]pyrimidine]

melting point: 282 to 284 °C
SMILES: Cc1cc(-c2ccc(C(F)(F)F)cc2)nc2c(C#Cc3ccc(S(N)(=O)=O)cc3)cnn12 [Example 150, 4-[7-Methyl-5-(4-trifluoromethyl-phenyl)-pyrazolo[1,5-a]pyrimidin-3-ylethynyl]-benzenesulfonamide]

melting point: 214 to 216 °C
SMILES: Cc1cc(-c2ccc(C(F)(F)F)cc2)nc2c(C#Cc3cccc(S(N)(=O)=O)c3)cnn12 [Example 151, 3-[7-Methyl-5-(4-trifluoromethyl-phenyl)-pyrazolo[1,5-a]pyrimidin-3-ylethynyl]-benzenesulfonamide]

melting point: 214 to 215 °C
SMILES: Cc1cc(-c2ccc(C(F)(F)F)cc2)nc2c(C#Cc3ccc(S(N)(=O)=O)s3)cnn12 [Example 152, 5-[7-Methyl-5-(4-trifluoromethyl-phenyl)-pyrazolo[1,5-a]pyrimidin-3-ylethynyl]-thiophene-2-sulfonic acid amide]

melting point: 267 to 269 °C
SMILES: CC(C)(O)c1cc(-c2ccc(Cl)cc2)nc2c(C#Cc3ccc(S(N)(=O)=O)cc3)cnn12 [Example 153, 4-[5-(4-Chloro-phenyl)-7-(1-hydroxy-1-methyl-ethyl)-pyrazolo[1,5-a]pyrimidin-3-ylethynyl]-benzenesulfonamide]

melting point: 206 to 208 °C
SMILES: CC(C)(O)c1cc(-c2ccc(Cl)cc2)nc2c(C#Cc3ccc(S(N)(=O)=O)s3)cnn12 [Example 154, 5-[5-(4-Chloro-phenyl)-7-(1-hydroxy-1-methyl-ethyl)-pyrazolo[1,5-a]pyrimidin-3-ylethynyl]-thiophene-2-sulfonic acid amide]

melting point: 238 to 240 °C
SMILES: NS(=O)(=O)c1ccc(C#Cc2cnn3c(CO)cc(-c4ccc(Cl)cc4)nc23)cc1 [Example 155, 4-[5-(4-Chloro-phenyl)-7-hydroxymethyl-pyrazolo[1,5-a]pyrimidin-3-ylethynyl]-benzenesulfonamide]
